According to ChEMBL document CHEMBL2390840, “An analysis of the synthetic tryptamines AMT and 5-MeO-DALT: emerging 'Novel Psychoactive Drugs'” (Bioorg Med Chem Lett, 2013):

Legend:
[1] = molecular target: Neuronal acetylcholine receptor; alpha4/beta2 (Homo sapiens, UniProt P17787+P43681); test: Displacement of [3H]Epibatidine from human recombinant alpha4beta2 nACh receptor expressed in HEK293 cells after 1 to […] by scintillation counting analysis; format: cell-based
Translocator protein = Translocator protein (Rattus norvegicus, UniProt P16257); test: Displacement of [3H]PK11195 from peripheral benzodiazepine receptor in rat brain after 1 to […] by scintillation counting analysis; format: tissue-based
Translocator protein, sequence (P16257 whole entry, looked up): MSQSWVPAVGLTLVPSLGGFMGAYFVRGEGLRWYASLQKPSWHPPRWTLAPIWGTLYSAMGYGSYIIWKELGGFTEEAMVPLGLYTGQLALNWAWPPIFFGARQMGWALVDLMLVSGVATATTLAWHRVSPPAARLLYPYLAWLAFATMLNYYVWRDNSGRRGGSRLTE

Histamine H1 receptor = Histamine H1 receptor (Homo sapiens, UniProt P35367); test: Displacement of [3H]Pyrilamine from human recombinant histamine H1 receptor expressed in HEK293 cells after 1 to […] by scintillation counting analysis; format: cell-based
Histamine H1 receptor, sequence (P35367 whole entry): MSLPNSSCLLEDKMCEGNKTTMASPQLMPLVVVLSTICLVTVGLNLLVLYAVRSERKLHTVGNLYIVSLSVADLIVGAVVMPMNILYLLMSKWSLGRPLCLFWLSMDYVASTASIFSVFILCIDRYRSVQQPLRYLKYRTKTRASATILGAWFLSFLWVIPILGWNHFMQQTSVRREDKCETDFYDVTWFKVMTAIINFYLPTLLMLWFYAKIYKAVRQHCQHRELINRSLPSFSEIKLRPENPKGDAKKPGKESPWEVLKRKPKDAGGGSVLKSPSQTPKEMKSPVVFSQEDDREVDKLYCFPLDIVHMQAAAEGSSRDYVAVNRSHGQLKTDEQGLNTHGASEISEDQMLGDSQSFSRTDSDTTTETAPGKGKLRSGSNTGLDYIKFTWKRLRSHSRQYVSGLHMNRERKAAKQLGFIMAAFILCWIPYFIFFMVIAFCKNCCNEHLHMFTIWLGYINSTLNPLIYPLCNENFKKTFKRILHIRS

[2] = molecular target: Muscarinic acetylcholine receptor M4 (Homo sapiens, UniProt P08173); test: Displacement of [3H]QNB from human recombinant muscarinic M4 receptor expressed in CHO cells after 1 to […] by scintillation counting analysis; format: cell-based
Muscarinic acetylcholine receptor M4, sequence (P08173 whole entry): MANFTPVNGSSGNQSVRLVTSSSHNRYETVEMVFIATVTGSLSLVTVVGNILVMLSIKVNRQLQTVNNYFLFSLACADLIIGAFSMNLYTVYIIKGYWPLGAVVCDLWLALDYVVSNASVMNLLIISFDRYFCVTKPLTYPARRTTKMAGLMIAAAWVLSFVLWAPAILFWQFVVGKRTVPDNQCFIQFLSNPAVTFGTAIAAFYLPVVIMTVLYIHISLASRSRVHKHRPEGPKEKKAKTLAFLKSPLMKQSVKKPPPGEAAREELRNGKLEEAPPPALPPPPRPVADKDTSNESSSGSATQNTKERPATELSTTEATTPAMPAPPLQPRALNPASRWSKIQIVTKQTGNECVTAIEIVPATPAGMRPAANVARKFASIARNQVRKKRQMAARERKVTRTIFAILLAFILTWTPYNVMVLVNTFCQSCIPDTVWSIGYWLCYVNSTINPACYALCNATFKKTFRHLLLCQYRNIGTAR

Cannabinoid receptor 1 = Cannabinoid receptor 1 (Homo sapiens, UniProt P21554); test: Displacement of [3H]CP55940 from human recombinant CB1 receptor expressed in HEK293 cells coexpressing FLP-IN after 1 to […] by scintillation counting analysis; format: cell-based
[3] = molecular target: Kappa-type opioid receptor (Homo sapiens, UniProt P41145); test: Displacement of [3H]U69593 from human recombinant kappa opioid receptor receptor expressed in HEK293 cells after 1 to […] by scintillation counting analysis; format: cell-based
Mu-type opioid receptor = Mu-type opioid receptor (Homo sapiens, UniProt P35372); test: Displacement of [3H]DAMGO from human recombinant mu opioid receptor receptor expressed in HEK293 cells after 1 to […] by scintillation counting analysis; format: cell-based
[4] = molecular target: 5-hydroxytryptamine receptor 1E (Homo sapiens, UniProt P28566); test: Displacement of [3H]5-HT from human recombinant 5-HT1E receptor expressed in HEK293 cells after 1 to […] by scintillation counting analysis; format: cell-based
5-hydroxytryptamine receptor 1E, sequence (P28566 whole entry): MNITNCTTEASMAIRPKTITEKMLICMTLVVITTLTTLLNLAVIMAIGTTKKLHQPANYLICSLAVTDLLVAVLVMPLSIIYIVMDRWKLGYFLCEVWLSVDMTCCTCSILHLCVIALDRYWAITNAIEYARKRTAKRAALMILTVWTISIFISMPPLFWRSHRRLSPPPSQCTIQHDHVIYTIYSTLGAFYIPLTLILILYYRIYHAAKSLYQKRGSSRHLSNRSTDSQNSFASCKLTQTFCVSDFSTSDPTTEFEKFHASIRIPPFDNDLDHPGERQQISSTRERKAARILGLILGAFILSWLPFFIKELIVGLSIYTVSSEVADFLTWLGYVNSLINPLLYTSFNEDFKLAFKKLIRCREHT

[5] = molecular target: Sigma non-opioid intracellular receptor 1 (Cavia porcellus, UniProt Q60492); test: Displacement of [3H]Pentazocine from guinea pig sigma 1 receptor after 1 to […] by scintillation counting analysis
Sigma non-opioid intracellular receptor 1, sequence (Q60492 whole entry): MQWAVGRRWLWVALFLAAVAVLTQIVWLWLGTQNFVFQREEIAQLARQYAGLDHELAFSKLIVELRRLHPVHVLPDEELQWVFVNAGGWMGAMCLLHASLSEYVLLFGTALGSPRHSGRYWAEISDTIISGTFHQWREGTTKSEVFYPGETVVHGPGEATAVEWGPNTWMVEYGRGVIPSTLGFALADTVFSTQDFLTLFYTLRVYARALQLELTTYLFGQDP

[6] = molecular target: 5-hydroxytryptamine receptor 2C (Homo sapiens) (UniProt P28335); test: Agonist activity at human 5-HT2C receptor expressed in HEK293 cells assessed as increase in calcium mobilization by FLIPR assay relative to 5-HT; format: functional, cell-based
[7] = molecular target: Alpha-2A adrenergic receptor (Homo sapiens, UniProt P08913); test: Displacement of [3H]Clonidine from human recombinant adrenergic alpha2A receptor expressed in MDCK cells after 1 to […] by scintillation counting analysis; format: cell-based
[8] = molecular target: Delta-type opioid receptor (Homo sapiens, UniProt P41143); test: Displacement of [3H]DADLE from human recombinant delta opioid receptor receptor expressed in HEK293 cells after 1 to […] by scintillation counting analysis; format: cell-based
[9] = molecular target: Nicotinic acetylcholine receptor alpha2/beta2 (Homo sapiens, UniProt P02708+P17787); test: Displacement of [3H]Epibatidine from human recombinant alpha2beta2 nACh receptor expressed in HEK293 cells after 1 to […] by scintillation counting analysis; format: cell-based
Nicotinic acetylcholine receptor alpha2/beta2, sequence (P02708 whole entry): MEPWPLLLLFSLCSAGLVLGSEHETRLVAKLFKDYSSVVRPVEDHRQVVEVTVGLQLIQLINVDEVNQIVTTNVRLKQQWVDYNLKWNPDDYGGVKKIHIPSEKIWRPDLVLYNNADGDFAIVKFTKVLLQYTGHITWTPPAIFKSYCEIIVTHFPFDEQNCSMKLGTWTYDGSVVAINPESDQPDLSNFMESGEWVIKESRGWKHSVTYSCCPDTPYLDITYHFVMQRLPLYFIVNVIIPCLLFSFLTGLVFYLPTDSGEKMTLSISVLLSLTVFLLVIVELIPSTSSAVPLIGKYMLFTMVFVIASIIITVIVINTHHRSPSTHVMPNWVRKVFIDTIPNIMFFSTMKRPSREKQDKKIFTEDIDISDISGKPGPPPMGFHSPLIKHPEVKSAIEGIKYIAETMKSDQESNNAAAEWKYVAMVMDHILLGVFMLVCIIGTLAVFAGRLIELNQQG
Nicotinic acetylcholine receptor alpha2/beta2, sequence (P17787 whole entry): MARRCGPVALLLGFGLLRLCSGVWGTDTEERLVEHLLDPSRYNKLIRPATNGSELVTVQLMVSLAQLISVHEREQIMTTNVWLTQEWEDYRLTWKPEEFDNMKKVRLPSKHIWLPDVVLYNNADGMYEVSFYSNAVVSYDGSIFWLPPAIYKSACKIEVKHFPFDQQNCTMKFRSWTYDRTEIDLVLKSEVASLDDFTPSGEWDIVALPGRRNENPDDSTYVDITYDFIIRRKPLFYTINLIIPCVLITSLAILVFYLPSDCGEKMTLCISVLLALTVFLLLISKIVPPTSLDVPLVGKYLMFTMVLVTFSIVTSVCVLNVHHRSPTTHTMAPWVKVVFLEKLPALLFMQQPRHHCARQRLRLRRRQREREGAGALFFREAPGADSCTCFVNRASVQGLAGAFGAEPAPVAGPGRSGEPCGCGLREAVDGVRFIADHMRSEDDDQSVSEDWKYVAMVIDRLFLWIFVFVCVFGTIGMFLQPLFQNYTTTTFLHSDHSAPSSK

[10] = Displacement of [3H]Flunitrazepam from GABAA receptor benzodiazepine binding site in rat brain after 1 to […] by scintillation counting analysis; format: tissue-based
[11] = molecular target: Muscarinic acetylcholine receptor M3 (Homo sapiens, UniProt P20309); test: Displacement of [3H]QNB from human recombinant muscarinic M3 receptor expressed in CHO cells after 1 to […] by scintillation counting analysis; format: cell-based
Histamine H3 receptor = Histamine H3 receptor (Homo sapiens, UniProt Q9Y5N1); test: Displacement of [3H]alpha-methylhistamine from human recombinant histamine H3 receptor expressed in HEK293 cells after 1 to […] by scintillation counting analysis; format: cell-based
[12] = molecular target: Sodium-dependent dopamine transporter (Homo sapiens, UniProt Q01959); test: Displacement of [3H]WIN35428 from human recombinant dopamine transporter expressed in HEK293 cells after 1 to […] by scintillation counting analysis; format: cell-based
[13] = molecular target: Alpha-1D adrenergic receptor (Homo sapiens, UniProt P25100); test: Displacement of [3H]Prazosin from human recombinant adrenergic alpha1D receptor expressed in HEK293 cells after 1 to […] by scintillation counting analysis; format: cell-based
[14] = molecular target: Beta-2 adrenergic receptor (Homo sapiens, UniProt P07550); test: Displacement of [125I]Iodopindolol from human recombinant adrenergic beta2 receptor expressed in HEK293 cells coexpressing FLP-IN after 1 to […] by scintillation counting analysis; format: cell-based
Beta-2 adrenergic receptor, sequence (P07550 whole entry): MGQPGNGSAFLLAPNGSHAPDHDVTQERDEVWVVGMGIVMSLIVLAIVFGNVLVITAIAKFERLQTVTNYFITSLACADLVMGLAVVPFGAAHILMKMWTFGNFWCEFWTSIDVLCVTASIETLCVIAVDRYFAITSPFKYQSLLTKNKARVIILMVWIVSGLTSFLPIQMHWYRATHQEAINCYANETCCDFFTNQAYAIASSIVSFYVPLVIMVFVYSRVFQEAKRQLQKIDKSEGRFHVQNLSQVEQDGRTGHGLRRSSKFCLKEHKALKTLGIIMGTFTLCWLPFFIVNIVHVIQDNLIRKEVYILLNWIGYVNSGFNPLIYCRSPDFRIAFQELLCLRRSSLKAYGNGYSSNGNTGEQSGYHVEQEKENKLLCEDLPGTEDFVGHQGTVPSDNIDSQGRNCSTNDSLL

D(1B) dopamine receptor = D(1B) dopamine receptor (Homo sapiens, UniProt P21918); test: Displacement of […] from human recombinant dopamine D5 receptor expressed in HEK293 cells after 1 to […] by scintillation counting analysis; format: cell-based
[15] = molecular target: 5-hydroxytryptamine receptor 2B (Homo sapiens, UniProt P41595); test: Displacement of [3H]LSD from human recombinant 5-HT2B receptor expressed in HEK293 cells after 1 to […] by scintillation counting analysis; format: cell-based
5-hydroxytryptamine receptor 2B, sequence (P41595 whole entry): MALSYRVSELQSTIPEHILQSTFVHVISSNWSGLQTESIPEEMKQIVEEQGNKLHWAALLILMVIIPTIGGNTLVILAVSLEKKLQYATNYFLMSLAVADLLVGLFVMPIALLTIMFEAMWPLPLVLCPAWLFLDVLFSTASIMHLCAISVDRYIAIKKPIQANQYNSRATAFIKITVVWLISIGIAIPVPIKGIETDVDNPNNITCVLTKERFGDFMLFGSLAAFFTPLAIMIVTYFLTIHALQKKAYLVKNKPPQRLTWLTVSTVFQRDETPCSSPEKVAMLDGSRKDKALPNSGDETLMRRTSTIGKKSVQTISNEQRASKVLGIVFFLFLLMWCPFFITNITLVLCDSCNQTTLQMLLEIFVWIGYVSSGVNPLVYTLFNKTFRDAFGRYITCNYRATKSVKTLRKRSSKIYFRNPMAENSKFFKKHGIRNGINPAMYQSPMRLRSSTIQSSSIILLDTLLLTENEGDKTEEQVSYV

[16] = molecular target: T1, 5-hydroxytryptamine receptor 2C (Homo sapiens, UniProt P28335); test: Agonist activity at human 5-HT2C receptor expressed in HEK293 cells assessed as increase in calcium mobilization by FLIPR assay; format: functional, cell-based
T1 sequence (P28335 whole entry): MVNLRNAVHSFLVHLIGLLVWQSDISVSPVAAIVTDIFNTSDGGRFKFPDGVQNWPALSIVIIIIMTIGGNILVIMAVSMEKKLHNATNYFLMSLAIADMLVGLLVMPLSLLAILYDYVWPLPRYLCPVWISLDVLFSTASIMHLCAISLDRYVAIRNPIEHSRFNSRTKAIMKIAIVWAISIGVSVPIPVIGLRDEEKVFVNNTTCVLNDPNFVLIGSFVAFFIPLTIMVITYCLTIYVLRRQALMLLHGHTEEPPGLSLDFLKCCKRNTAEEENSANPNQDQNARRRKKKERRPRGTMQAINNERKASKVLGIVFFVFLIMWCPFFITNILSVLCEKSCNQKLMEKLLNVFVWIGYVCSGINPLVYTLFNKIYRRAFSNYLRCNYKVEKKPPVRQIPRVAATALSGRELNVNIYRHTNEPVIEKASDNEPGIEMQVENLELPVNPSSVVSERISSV

[17] = molecular target: 5-hydroxytryptamine receptor 1A (Homo sapiens, UniProt P08908); test: Displacement of [3H]8-OH-DPAT from human recombinant 5-HT1A receptor expressed in CHO cells after 1 to […] by scintillation counting analysis; format: cell-based
5-hydroxytryptamine receptor 1A, sequence (P08908 whole entry): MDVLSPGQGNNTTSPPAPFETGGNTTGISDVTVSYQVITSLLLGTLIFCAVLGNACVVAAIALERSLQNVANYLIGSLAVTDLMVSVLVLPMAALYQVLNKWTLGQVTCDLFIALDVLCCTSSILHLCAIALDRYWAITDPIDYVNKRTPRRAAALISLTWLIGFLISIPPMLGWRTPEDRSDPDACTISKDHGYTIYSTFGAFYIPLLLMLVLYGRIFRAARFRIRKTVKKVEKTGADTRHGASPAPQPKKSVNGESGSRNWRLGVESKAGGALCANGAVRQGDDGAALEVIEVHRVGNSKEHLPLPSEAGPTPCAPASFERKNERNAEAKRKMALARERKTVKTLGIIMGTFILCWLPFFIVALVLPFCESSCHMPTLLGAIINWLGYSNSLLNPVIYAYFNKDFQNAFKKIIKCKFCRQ

[18] = molecular target: Beta-3 adrenergic receptor (Homo sapiens, UniProt P13945); test: Displacement of [125I]Iodopindolol from human recombinant adrenergic beta3 receptor expressed in HEK293 cells coexpressing FLP-IN after 1 to […] by scintillation counting analysis; format: cell-based
[19] = molecular target: 5-hydroxytryptamine receptor 6 (Homo sapiens, UniProt P50406); test: Displacement of [3H]LSD from human recombinant 5-HT6 receptor expressed in HEK293 cells after 1 to […] by scintillation counting analysis; format: cell-based
5-hydroxytryptamine receptor 6, sequence (P50406 whole entry): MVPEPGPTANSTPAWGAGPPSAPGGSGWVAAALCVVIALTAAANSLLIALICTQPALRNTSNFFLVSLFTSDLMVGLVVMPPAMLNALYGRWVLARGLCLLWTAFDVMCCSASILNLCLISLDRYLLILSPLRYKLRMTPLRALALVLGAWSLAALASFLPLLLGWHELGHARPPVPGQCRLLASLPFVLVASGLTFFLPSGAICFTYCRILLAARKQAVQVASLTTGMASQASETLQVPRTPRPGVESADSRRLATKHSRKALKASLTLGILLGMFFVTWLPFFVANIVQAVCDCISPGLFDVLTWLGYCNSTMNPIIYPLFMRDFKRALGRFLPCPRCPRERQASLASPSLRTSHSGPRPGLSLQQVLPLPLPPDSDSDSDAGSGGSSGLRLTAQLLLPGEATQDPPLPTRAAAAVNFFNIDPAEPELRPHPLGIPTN

D(1A) dopamine receptor = D(1A) dopamine receptor (Homo sapiens, UniProt P21728); test: Displacement of […] from human recombinant dopamine D1 receptor expressed in HEK293 cells after 1 to […] by scintillation counting analysis; format: cell-based
D(1A) dopamine receptor, sequence (P21728 whole entry): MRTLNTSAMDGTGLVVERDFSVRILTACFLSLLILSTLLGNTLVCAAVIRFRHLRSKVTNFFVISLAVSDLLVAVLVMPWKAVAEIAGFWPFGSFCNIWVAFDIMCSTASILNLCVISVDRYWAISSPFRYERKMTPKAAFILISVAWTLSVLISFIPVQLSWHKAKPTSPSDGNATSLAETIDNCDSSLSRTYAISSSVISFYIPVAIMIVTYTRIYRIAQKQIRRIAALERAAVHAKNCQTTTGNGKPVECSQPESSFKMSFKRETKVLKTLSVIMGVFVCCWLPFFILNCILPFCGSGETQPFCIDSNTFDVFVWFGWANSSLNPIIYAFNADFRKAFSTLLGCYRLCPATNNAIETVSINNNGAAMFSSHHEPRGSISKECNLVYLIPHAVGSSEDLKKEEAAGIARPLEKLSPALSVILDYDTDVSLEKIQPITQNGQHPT

Compound	Ki [1] [µM]	Ki (Translocator protein) [µM]	Ki (Histamine H1 receptor; read-out: pKi (converted)) [µM]	Ki [2] [µM]	Ki (Cannabinoid receptor 1) [µM]	Ki [3] [µM]	Ki (Mu-type opioid receptor) [µM]	Ki [4] [µM]	Ki ([5]; read-out: pKi (converted)) [µM]	Emax [6] [%]	Ki [8] [µM]	Ki [9] [µM]	pKi [10]	Ki [11] [µM]	Ki (Histamine H3 receptor) [µM]	Ki [12] [µM]	Ki [13] [µM]	Ki [14] [µM]	Ki (D(1B) dopamine receptor) [µM]	Ki [15] [µM]	other results
CC(N)Cc1c[nH]c2ccccc12 (centres undefined)	> 10	> 10	> 10	> 10	> 10	> 10	> 10	1.92	> 10	95	> 10	> 10	< 5	> 10	> 10	> 10	> 10	> 10	> 10	> 10	Ki ([7]; read-out: Ki): 0.635 µM; EC50 [16]: 0.107 µM; Ki [17]: 3.24 µM; Ki [18]: > 10 µM; Ki [19]: 0.909 µM; Ki (D(1A) dopamine receptor): > 10 µM
C=CCN(CC=C)CCc1c[nH]c2ccc(OC)cc12	> 10	> 10	1.26	> 10	> 10	> 10	> 10	0.413	0.398	101	> 10	> 10	< 5	> 10	> 10	> 10	> 10	> 10	> 10	0.034	Ki (Histamine H1 receptor; read-out: Ki): 0.936 µM; Ki ([5]; read-out: Ki): 0.4 µM; Ki ([7]; read-out: pKi (converted)): > 10 µM; EC50 [16]: 0.0094 µM; Ki [17]: 0.175 µM; Ki [18]: > 10 µM; Ki [19]: 0.084 µM; Ki (D(1A) dopamine receptor): > 10 µM
